From patent US12077503B2, “Substituted cyclic amides and their use as herbicides” (FMC CORPORATION, priority 2015, dated 2024)

Key:
Assay type in all cases: in vivo
[1] = tested on: ryegrass, Italian (Italian ryegrass, Lolium multiflorum); assay: Test A preemergence; details: Lolium multiflorum, pre-emergence, 240 h; for pest or weed control at 125 g/ha: 125 g ai/ha, preemergence, 0 to 100 scale where 0 is no effect and 100 is complete control, read-out: Ryegrass, Italian plant response rating; for pest or weed control at 500 g/ha: 500 g ai/ha, Preemergence, visual injury vs untreated controls after approximately 10 d, read-out: Ryegrass, Italian plant response rating (0 to 100 scale where 0 is no effect and 100 is complete control)
Procedure, shortened: (§1)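 Ratings of 0 (no effect) to 100 (complete control) come from visual comparison with untreated controls roughly 10 d after treatment. Test chemicals, formulated in a non-phytotoxic solvent mixture with surfactant, were applied either as a preemergence directed soil spray on seeded soil or postemergence to one- to two-leaf plants 2 to 10 cm tall.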

Kochia (Kochia scoparia) [2] = assay: Test A preemergence; details: Bassia scoparia, pre-emergence, 240 h; for pest or weed control at 125 g/ha: 125 g ai/ha, preemergence, 0 to 100 scale where 0 is no effect and 100 is complete control, read-out: Kochia plant response rating; for pest or weed control at 500 g/ha: 500 g ai/ha, Preemergence, visual injury vs untreated controls after approximately 10 d, read-out: Kochia plant response rating (0 to 100 scale where 0 is no effect and 100 is complete control)
Procedure, shortened: as §1

[3] = tested on: pigweed (Amaranthus retroflexus); assay: Test A preemergence; details: Amaranthus retroflexus, pre-emergence, 240 h; for pest or weed control at 125 g/ha: 125 g ai/ha, preemergence, 0 to 100 scale where 0 is no effect and 100 is complete control, read-out: Pigweed plant response rating; for pest or weed control at 500 g/ha: 500 g ai/ha, Preemergence, visual injury vs untreated controls after approximately 10 d, read-out: Pigweed plant response rating (0 to 100 scale where 0 is no effect and 100 is complete control)
[4] = tested on: barnyardgrass (Echinochloa crus-galli); assay: Test A preemergence; details: Echinochloa crus-galli, pre-emergence, 240 h; for pest or weed control at 125 g/ha: 125 g ai/ha, preemergence, 0 to 100 scale where 0 is no effect and 100 is complete control, read-out: Barnyardgrass plant response rating; for pest or weed control at 500 g/ha: 500 g ai/ha, Preemergence, visual injury vs untreated controls after approximately 10 d, read-out: Barnyardgrass plant response rating (0 to 100 scale where 0 is no effect and 100 is complete control)
Procedure, shortened: as §1

[5] = tested on: giant foxtail (Setaria faberii); assay: Test A preemergence; details: Setaria faberi, pre-emergence, 240 h; for pest or weed control at 125 g/ha: 125 g ai/ha, preemergence, 0 to 100 scale where 0 is no effect and 100 is complete control, read-out: Foxtail, Giant plant response rating; for pest or weed control at 500 g/ha: 500 g ai/ha, Preemergence, visual injury vs untreated controls after approximately 10 d, read-out: Foxtail, Giant plant response rating (0 to 100 scale where 0 is no effect and 100 is complete control)
Procedure, shortened: as §1

[6] = tested on: ragweed (common ragweed, Ambrosia elatior); assay: Test A preemergence; details: Ambrosia artemisiifolia, pre-emergence, 240 h; for pest or weed control at 125 g/ha: 125 g ai/ha, preemergence, 0 to 100 scale where 0 is no effect and 100 is complete control, read-out: Ragweed plant response rating; for pest or weed control at 500 g/ha: 500 g ai/ha, Preemergence, visual injury vs untreated controls after approximately 10 d, read-out: Ragweed plant response rating (0 to 100 scale where 0 is no effect and 100 is complete control)
Procedure, shortened: as §1

[7] = tested on: ryegrass, Italian (Italian ryegrass, Lolium multiflorum); assay: Test A postemergence; details: Lolium multiflorum, post-emergence, 240 h, 125 g ai/ha, Postemergence; visual injury after approximately 10 d; 0 to 100 scale where 0 is no effect and 100 is complete control; read-out: Plant response rating, Ryegrass, Italian
Procedure, shortened: as §1

Kochia (Kochia scoparia) [8] = assay: Test A postemergence; details: Bassia scoparia, post-emergence, 240 h, 125 g ai/ha, Postemergence; visual injury after approximately 10 d; 0 to 100 scale where 0 is no effect and 100 is complete control; read-out: Plant response rating, Kochia
Procedure, shortened: as §1

[9] = tested on: blackgrass (Alopecurus myosuroides); assay: Test A postemergence; details: Alopecurus myosuroides, post-emergence, 240 h, 125 g ai/ha, Postemergence; visual injury after approximately 10 d; 0 to 100 scale where 0 is no effect and 100 is complete control; read-out: Plant response rating, Blackgrass
Procedure, shortened: as §1

[10] = tested on: pigweed (Amaranthus retroflexus); assay: Test A postemergence; details: Amaranthus retroflexus, post-emergence, 240 h, 125 g ai/ha, Postemergence; visual injury after approximately 10 d; 0 to 100 scale where 0 is no effect and 100 is complete control; read-out: Plant response rating, Pigweed
Procedure, shortened: as §1

[11] = tested on: barnyardgrass (Echinochloa crus-galli); assay: Test A postemergence; details: Echinochloa crus-galli, post-emergence, 240 h, 125 g ai/ha, Postemergence; visual injury after approximately 10 d; 0 to 100 scale where 0 is no effect and 100 is complete control; read-out: Plant response rating, Barnyardgrass
Procedure, shortened: as §1

[12] = tested on: giant foxtail (Setaria faberii); assay: Test A postemergence; details: Setaria faberi, post-emergence, 240 h, 125 g ai/ha, Postemergence; visual injury after approximately 10 d; 0 to 100 scale where 0 is no effect and 100 is complete control; read-out: Plant response rating, Foxtail, Giant
Procedure, shortened: as §1

[13] = tested on: wheat (Triticum aestivum); assay: Test A postemergence; details: Triticum aestivum, post-emergence, 240 h, 125 g ai/ha, Postemergence; visual injury after approximately 10 d; 0 to 100 scale where 0 is no effect and 100 is complete control; read-out: Plant response rating, Wheat
Procedure, shortened: as §1

[14] = tested on: Galium (catchweed bedstraw, Galium aparine); assay: Test A postemergence; details: Galium, post-emergence, 240 h, 125 g ai/ha, Postemergence; visual injury after approximately 10 d; 0 to 100 scale where 0 is no effect and 100 is complete control; read-out: Plant response rating, Galium
Procedure, shortened: as §1

corn (Zea mays) = assay: Test A postemergence; details: Zea mays, post-emergence, 240 h, 125 g ai/ha, Postemergence; visual injury after approximately 10 d; 0 to 100 scale where 0 is no effect and 100 is complete control
Procedure, shortened: as §1

CN1C[C@H](c2ccc(C(F)(F)F)cc2)[C@@H](C(=O)Nc2ccccc2[S+](C)[O-])C1=O (stereo partly drawn) [Compound 915]
pest or weed control at 125 g/ha [1]: 40% | pest or weed control at 500 g/ha [1]: 70% | pest or weed control at 125 g/ha (Kochia (Kochia scoparia) [2]): 80% | pest or weed control at 500 g/ha (Kochia (Kochia scoparia) [2]): 90% | pest or weed control at 125 g/ha [3]: 80% | pest or weed control at 500 g/ha [3]: 90% | pest or weed control at 125 g/ha [4]: 100% | pest or weed control at 500 g/ha [4]: 100% | pest or weed control at 125 g/ha [5]: 90% | pest or weed control at 500 g/ha [5]: 100% | pest or weed control at 125 g/ha [6]: 80% | pest or weed control at 500 g/ha [6]: 90% | pest or weed control at 125 g/ha [7]: 30% | pest or weed control at 125 g/ha (Kochia (Kochia scoparia) [8]): 20% | pest or weed control at 125 g/ha [9]: 40% | pest or weed control at 125 g/ha [10]: 60% | pest or weed control at 125 g/ha [11]: 90% | pest or weed control at 125 g/ha [12]: 90% | plant injury at 125 g/ha [13]: 40% | pest or weed control at 125 g/ha [14]: 50% | Corn plant response rating (crop injury, 0 = no effect, 100 = complete kill) at 125 g/ha (corn (Zea mays)): 0%

CON1CC[C@H](c2ccc(F)cc2)[C@@H](C(=O)Nc2cccc(F)c2F)C1=O [Compound 918]
pest or weed control at 125 g/ha [1]: 0% | pest or weed control at 500 g/ha [1]: 0% | pest or weed control at 125 g/ha (Kochia (Kochia scoparia) [2]): 0% | pest or weed control at 500 g/ha (Kochia (Kochia scoparia) [2]): 0% | pest or weed control at 125 g/ha [3]: 0% | pest or weed control at 500 g/ha [3]: 0% | pest or weed control at 125 g/ha [4]: 0% | pest or weed control at 500 g/ha [4]: 40% | pest or weed control at 125 g/ha [5]: 20% | pest or weed control at 500 g/ha [5]: 70% | pest or weed control at 125 g/ha [6]: 0% | pest or weed control at 500 g/ha [6]: 0% | pest or weed control at 125 g/ha [7]: 0% | pest or weed control at 125 g/ha (Kochia (Kochia scoparia) [8]): 0% | pest or weed control at 125 g/ha [9]: 40% | pest or weed control at 125 g/ha [10]: 0% | pest or weed control at 125 g/ha [11]: 0% | pest or weed control at 125 g/ha [12]: 0% | plant injury at 125 g/ha [13]: 0% | pest or weed control at 125 g/ha [14]: 0% | Corn plant response rating (crop injury, 0 = no effect, 100 = complete kill) at 125 g/ha (corn (Zea mays)): 0%
